From PubChem BioAssay (NCI)
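Interpolation was linear, between the two tested concentrations surrounding the appropriate level; five concentrations were tested over 48 hours in 96-well plates. GI50: concentration for 50% inhibition of growth. The concentration for full growth arrest is given as TGI.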

Key:
Experiment in all cases: DTP human tumour cell line panel, 48 h
[1] = test system: 786-0 renal
[2] = test system: A498 renal
[3] = test system: A549 NSCLC
[4] = test system: ACHN renal
[5] = test system: BT-549 breast
[6] = test system: CAKI-1 renal
[7] = test system: CCRF-CEM leukemia
[8] = test system: COLO 205 colon
[9] = test system: DU-145 prostate
[10] = test system: EKVX NSCLC
[11] = test system: HCC-2998 colon
[12] = test system: HCT-116 colon
[13] = test system: HCT-15 colon
[14] = test system: HL-60(TB) leukemia
[15] = test system: HOP-62 NSCLC
[16] = test system: HOP-92 NSCLC
[17] = test system: HS 578T breast
[18] = test system: HT29 colon
[19] = test system: IGROV1 ovarian
[20] = test system: K-562 leukemia
[21] = test system: KM12 colon
[22] = test system: LOX IMVI melanoma
[23] = test system: M14 melanoma
[24] = test system: MALME-3M melanoma
[25] = test system: MCF7 breast
[26] = test system: MDA-MB-231 breast
[27] = test system: MDA-MB-435
[28] = test system: MOLT-4 leukemia
[29] = test system: NCI-H226 lung
[30] = test system: NCI-H23 lung
[31] = test system: NCI-H460 lung
[32] = test system: NCI-H522 lung
[33] = test system: NCI/ADR-RES ovarian
[34] = test system: OVCAR-3 ovarian
[35] = test system: OVCAR-4 ovarian
[36] = test system: OVCAR-5 ovarian
[37] = test system: OVCAR-8 ovarian
[38] = test system: PC-3 prostate
[39] = test system: RPMI-8226 leukemia
[40] = test system: RXF 393 renal
[41] = test system: SF-268 CNS
[42] = test system: SF-295 CNS
[43] = test system: SF-539 CNS
[44] = test system: SK-MEL-2 melanoma
[45] = test system: SK-MEL-28 melanoma
[46] = test system: SK-MEL-5 melanoma
[47] = test system: SK-OV-3 ovarian
[48] = test system: SN12C renal
[49] = test system: SNB-19 CNS
[50] = test system: SNB-75 CNS
[51] = test system: SW-620 colon
[52] = test system: T-47D breast
[53] = test system: TK-10 renal
[54] = test system: U251 CNS
[55] = test system: UACC-257 melanoma
[56] = test system: UACC-62 melanoma
[57] = test system: UO-31 renal

Compound: CN(C)C(=S)NN=C(c1ccccn1)c1ccccn1
- GI50 [1]: < 23.2 nM
- TGI [1]: 1260 nM
- GI50 [2]: 191 nM
- TGI [2]: 12100 nM
- GI50 [3]: 101 nM
- TGI [3]: > 42800 nM
- GI50 [4]: < 10.8 nM
- TGI [4]: 10700 nM
- GI50 [5]: 74 nM
- TGI [5]: 15400 nM
- GI50 [6]: < 12.7 nM
- TGI [6]: 6590 nM
- TGI [7]: > 65200 nM
- GI50 [8]: < 10 nM
- TGI [8]: 11800 nM
- GI50 [9]: 232 nM
- TGI [9]: > 33700 nM
- GI50 [10]: 24.7 nM
- TGI [10]: 23800 nM
- GI50 [11]: 32.7 nM
- TGI [11]: 21200 nM
- GI50 [12]: < 10 nM
- TGI [12]: 11000 nM
- GI50 [13]: < 12 nM
- TGI [13]: 25500 nM
- GI50 [14]: < 47.9 nM
- GI50 [15]: < 10 nM
- TGI [15]: 27.3 nM
- TGI [16]: > 86600 nM
- TGI [17]: > 55400 nM
- GI50 [18]: < 10 nM
- TGI [18]: > 100000 nM
- GI50 [19]: < 10 nM
- TGI [19]: 21800 nM
- TGI [20]: > 100000 nM
- GI50 [21]: 46 nM
- TGI [21]: 21600 nM
- GI50 [22]: < 10 nM
- TGI [22]: 11500 nM
- GI50 [23]: < 14.7 nM
- TGI [23]: 349 nM
- GI50 [24]: < 33.1 nM
- TGI [24]: 503 nM
- GI50 [25]: < 10 nM
- TGI [25]: > 47400 nM
- GI50 [26]: 41.2 nM
- TGI [26]: 27800 nM
- GI50 [27]: 76 nM
- TGI [27]: 16700 nM
- GI50 [28]: < 10 nM
- TGI [28]: 2150 nM
- GI50 [29]: 44.5 nM
- TGI [29]: 12700 nM
- GI50 [30]: < 10 nM
- TGI [30]: 16300 nM
- GI50 [31]: < 25 nM
- GI50 [32]: 124 nM
- TGI [32]: 19100 nM
- GI50 [33]: < 20.8 nM
- TGI [33]: 4980 nM
- GI50 [34]: < 10 nM
- TGI [34]: 30500 nM
- GI50 [35]: < 10 nM
- TGI [35]: > 83100 nM
- GI50 [36]: 45 nM
- TGI [36]: 27400 nM
- GI50 [37]: 36.1 nM
- TGI [37]: 27000 nM
- GI50 [38]: < 12.3 nM
- TGI [38]: > 43800 nM
- TGI [39]: > 100000 nM
- GI50 [40]: 138 nM
- TGI [40]: 13800 nM
- GI50 [41]: < 36.2 nM
- TGI [41]: > 43400 nM
- GI50 [42]: 42.1 nM
- TGI [42]: 18600 nM
- GI50 [43]: 42.5 nM
- TGI [43]: 4640 nM
- GI50 [44]: 106 nM
- TGI [44]: 4200 nM
- GI50 [45]: 131 nM
- TGI [45]: 18200 nM
- GI50 [46]: 62.9 nM
- TGI [46]: 3450 nM
- GI50 [47]: 48.7 nM
- TGI [47]: 16700 nM
- GI50 [48]: 97.1 nM
- TGI [48]: 33400 nM
- GI50 [49]: 3130 nM
- TGI [49]: > 100000 nM
- GI50 [50]: 14300 nM
- TGI [50]: > 81600 nM
- GI50 [51]: < 11.5 nM
- TGI [51]: > 40200 nM
- TGI [52]: > 44900 nM
- GI50 [53]: 183 nM
- TGI [53]: 16500 nM
- GI50 [54]: < 10 nM
- TGI [54]: > 59400 nM
- GI50 [55]: < 12 nM
- TGI [55]: 2510 nM
- GI50 [56]: 77 nM
- TGI [56]: 739 nM
- GI50 [57]: < 18.4 nM
- TGI [57]: 14100 nM
